The IC50 is the concentration needed to halve the response being measured.

5 compounds from US20170050980A1, “OXADIAZINE COMPOUNDS AND METHODS OF USE THEREOF” (FORUM Pharmaceuticals Inc., priority 2015, published 2017) can be followed below.

The test system of the experiment is Aβ42. As to the kind of experiment: In vitro cell screening assay; quantification of Aβ (1-42) peptide by sandwich ELISA. The settings on record: Human neuroglioma H4 cells stably expressing human wild type APP751; compounds 0.003-10 μM, incubated overnight (16-18 h); Aβ42 in supernatant by sandwich ELISA; normalized to DMSO and DAPT; read-out: Aβ42 H4 Prot Fre IC50. In kind it is cell-based. The method, boiled down: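 Stable H4 neuroglioma line expressing human wild-type APP751; compounds 0.003-10 μM (0.33% DMSO final) added in Pro293 medium 6 h after plating, incubated overnight (16-18 h) at 37 °C. Secreted Aβ42 measured in supernatant by C-terminal-capture sandwich ELISA with 4G8-HRP detection; IC50 by sigmoidal fit, normalized to DMSO and DAPT.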
(ELISA stands for enzyme-linked immunosorbent assay.)
`COc1nc(C2=NOC(C)C(c3cn(C)c4ncc(C5CC5)cc34)N2)ccc1-n1cnc(C)c1` (single isomer, unassigned; (-)) [Example 56B, (−)-5-(5-cyclopropyl-1-methyl-1H-pyrrolo [2,3-b]pyridin-3-yl)-3-(6-methoxy-5-(4-methyl-1H-imidazol-1-yl)pyridin-2-yl)-6-methyl-5,6-dihydro-4H-1,2,4-oxadiazine]: the half-inhibitory concentration (IC50) amounted to 13 nM.

As to `COc1nc(C2=NOC3(CC3)C(c3ccc(Cl)cc3)N2)ccc1-n1cnc(C)c1` (single isomer, unassigned; (-)) [Example 25A, (−)-8-(4-chlorophenyl)-6-[6-methoxy-5-(4-methyl-1H-imidazol-1-yl)pyridin-2-yl]-4-oxa-5,7-diazaspiro[2.5]oct-5-ene], the IC50 worked out at 2600 nM.

For the compound `COc1nc(C2=NOC(C3CC3)C(c3cn(C)c4ncc(F)c(F)c34)N2)ccc1-n1cnc(C)c1` (single isomer, unassigned; (+)) [Example 60A, (+)-6-cyclopropyl-5-(4,5-difluoro-1-methyl-1H-pyrrolo [2,3-b]pyridin-3-yl)-3-(6-methoxy-5-(4-methyl-1H-imidazol-1-yl)pyridin-2-yl)-5,6-dihydro-4H-1,2,4-oxadiazine], the IC50 came out at 367 nM.

For the compound `COc1nc(C2=NOC(C)C(c3nn(C)c4ccc(Cl)cc34)N2)ccc1-n1cnc(C)c1` (stereo not drawn) [Example 69B, (−)-(cis)-5-(5-chloro-1-methyl-1H-indazol-3-yl)-3-(6-methoxy-5-(4-methyl-1H-imidazol-1-yl)pyridin-2-yl)-6-methyl-5,6-dihydro-4H-1,2,4-oxadiazine], the IC50 is 706 nM.

With `COc1nc(C2=NOC(C)C(c3c4n(c5ccc(Cl)cc35)CCOC4)N2)ccc1-n1cnc(C)c1` (single isomer, unassigned; (-)) [Example 50B, (−)-8-chloro-10-(3-(6-methoxy-5-(4-methyl-1H-imidazol-1-yl)pyridin-2-yl)-6-methyl-5,6-dihydro-4H-1,2,4-oxadiazin-5-yl)-3,4-dihydro-1H-[1,4] oxazino [4,3-a] indole], the IC50 stood at 27 nM.
